# Entries after “also recorded” stand apart in the source; their conditions may differ.
# Tests used:
# HCT-116 xenografts = assay: Subcutaneous colon cancer xenograft in athymic mice; format: in vivo, mouse; settings: HCT-116 subcutaneous xenografts; BAY 11-7085 1 mg/kg twice weekly for 28 days vs DMSO
# Description: (§1) DLD-1, HCT-116, and HT-29 cells were cultured for 6 days in soft agar in the presence of DMSO (control), 10 μM BAY 11-7082, or 10 μM BAY 11-7085. The data points represent the means of colony counts per field (20×) performed in 5 different regions of the culture dishes. The data shown represent a typical result of two separate experiments. FIG. 2B and FIG. 2C are graphs that show athymic mice received subcutaneous injections of HT-29 (FIG. B) or HCT-116 (FIG. C) cells, followed by […] of BAY 11-7085 (dark bars) or DMSO (white bars) intraperitoneally twice weekly. The bars represent the 25-75% ranges of the tumor volumes and the horizontal lines in the bars are the medians. Using the Kruskal-Wallace statistical test to compare the median tumor volumes between BAY 11-7085 and DMSO yielded a p-value of 0.005 for HT-29 cells but >0.05 for HCT-116 cells.
# (§2) HT-29 and HCT-116 cells were harvested in 0.25% trypsin-PBS-EDTA, washed once in media and PBS, and resuspended in PBS at 1 million cells per 200 μL. One million cells were injected either subcutaneously in the backs or intraperitoneally in 5 week old female nu/nu athymic mice (Charles River Labs). For the mice with subcutaneous tumors, the tumors were allowed to establish themselves for 10 days after which they were randomized to BAY 11-7085 or DMSO. For the mice with intraperitoneal tumors, the mice received DMSO or BAY 11-7085 (5 mg/kg) 24 hours before the cancer cells were injected intraperitoneally. […] Subcutaneous tumor sizes were determined by measuring the length and width with calipers. These studies were approved by the University of Utah Institutional Review Board and Institutional Animal Care and Use Committee and performed in the Animal Resource Center. Mice were euthanized when they experienced a greater than 10% loss in body weight or if they appeared ill. Post-mortem examinations included sectioning of kidney, lung, and liver tissues which were stained with hematoxylin and eosin followed by examination for tissue toxicity/damage by an experienced mouse pathologist (E.J.E.) who was blinded to therapy.
# (§3) HCT-116 and HT-29 cell lines were used to generate subcutaneous tumors in athymic female mice. The mice were subsequently randomized to be treated with vehicle (DMSO) alone or BAY 11-7085 […] twice weekly for 28 days.
# HT-29 xenografts = assay: as above; format: in vivo, mouse
# Description: as §1, §2, §3
# adherent HT-29 cells = assay: Annexin V-FITC apoptosis assay, adherent cells; format: cell-based, human
# From the text: FIG. 3 is a group of graphs that show NF-κB inhibitors cause apoptosis of colon cancer cells. […] The data points represent the average percent of annexin V-positive, propidium iodide-negative cells (of the total cells counted) from triplicate experiments. The error bars represent the standard error of the means. […] The results shown are a graphic representation of individual flow cytometry results expressed as the percentage of cells that were annexin V-positive of those that excluded propidium iodide. […] An immunoblot of the lysates for cleaved PARP was performed. Each lane represents equal total protein concentrations. […] The cells were allowed to adhere to plastic dishes for 1 hour after which they were washed gently in PBS and stained with crystal violet. The crystal violet stained cells were solubilized in deoxycholate and the absorbance detected in a spectrophotometer at 590 nm. The adherent cells were expressed as a fraction of the controls. Each data point represents the average of triplicate experiments and the error bars the standard errors of the means.
# The data points represent the means of triplicate experiments and the error bars the standard errors of the means. […] The percent of apoptotic cells was then determined by the annexin V assay. […] The results shown are typical of two separate experiments. […] Immunoblots were performed for c-IAP-2, TRAF-1, TRAF-2, and FLIP. All lanes contain equal total protein.
# Single cell suspensions were plated at 100,000 cells per well in 24-well plates in media containing DMSO, BAY 11-7082, BAY 11-7085, or MG-132 for 8-24 hours in an incubator. Alternatively, DMSO, BAY 11-7082, BAY 11-7085, or MG-132 were added to cells that were confluent and adherent for several days. The nonadherent cells were aspirated off with the media and spun for 3 minutes at 2,000 rpm in 15 mL polypropylene tubes. The adherent cells were washed twice with PBS, dispersed in trypsin, and spun down for 3 minutes at 2,000 rpm in 15 mL polypropylene tubes. The nonadherent and adherent cells were resuspended in 1× binding buffer (10 mM HEPES/NaOH, pH 7.4, 140 mM NaCl, and 2.5 mM CaCl2) to a final concentration of 10^6 cells/mL. 100 μL of the cell solution were transferred to a 5 mL culture tube and incubated with 5 μL of annexin V-FITC-conjugated monoclonal antibody (Pharmingen) and 10 μl, of propidium iodide (from a 50 μg/mL stock solution made in PBS) in the dark at 25° C. for 15 minutes. 400 μL of binding buffer was added to each tube and the cells were analyzed by flow cytometry immediately. The percent of apoptosis was determined as the percent of annexin V-positive, propidium iodide-negative cells of the total cells counted.
compound,measurement,setting,value
"CC(C)(C)c1ccc(S(=O)(=O)/C=C/C#N)cc1 [BAY 11-7085, (2E)-3-[4-(tertiarybutylphenyl)sulfonyl]-2-propenenitrile]",tumor volumes vs control group,HCT-116 xenografts,no statistically significant overall difference in the tumor volumes
same,tumor volumes vs control group,"HT-29 xenografts; HT-29 subcutaneous xenografts, BAY 11-7085 1 mg/kg twice weekly for 28 days vs DMSO",statistically significant overall reduction in the tumor volumes
same,colon cancer xenograft growth,"HT-29 xenografts; athymic mice, compound alone, cell line not given",inhibit colon cancer xenograft growth
same,apoptotic cells among cells that remained adherent,"adherent HT-29 cells; HT-29 treated with increasing concentrations of BAY 11-7085, adherent fraction",only a minority of the adherent cells was apoptotic
same,apoptotic cells among cells that became nonadherent,"adherent HT-29 cells; HT-29 treated with increasing concentrations of BAY 11-7085, nonadherent fraction",the majority of nonadherent cells were apoptotic; also recorded: predominantly apoptotic
same,"level of apoptosis (annexin V-positive, propidium iodide-negative cells)","adherent HT-29 cells; adherent HT-29, 24 hours, BAY compounds at doses up to 20, MG-132 20 μM",relatively greater for MG-132 than BAY 11-7085; also recorded: caused an increase in the level of apoptosis
same,apoptosis of adherent HT-29 cell monolayers,"adherent HT-29 cells; even the highest doses (10-100 μM), compared with transiently suspended cells",only a relatively small degree of apoptosis

# — patent publication US20110251135A1, “INHIBITORS OF PERITONEAL SEEDING OF CANCER CELLS” (University of Utah Research Foundation, priority 2008, published 2011)
